The test system of one test is WT pNL4-3. In words: CA-SP1 accumulation assay, WT NL4-3. Format: cell-based, HIV-1. To be noted: HeLa or 293T cells; for % CA-SP1 Accumulation 10 nM NL4-3: 10 nM compound. The procedure, abridged: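 HeLa or 293T cells transfected with proviral clone, maturation inhibitors present through transfection and labeling; at 24 h, [^35S]Met/Cys labeling 2-3 h. Virions pelleted by ultracentrifugation, lysed, CA and CA-SP1 resolved by SDS-PAGE and quantified by phosphorimaging.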

For another test, the system named is HIV-1 clade C ZM247. Nature of the test: CA-SP1 accumulation assay (immunoblot), clade C ZM247. Format: cell-based. The conditions noted are these: head prints K3016. On the procedure:
Compound evaluation was performed against a panel of HIV-1 Clade C isolates K3016, pindieC1, and ZM247. The three isolates all contain the SP1-A7V. Clade B NL4-3 was included as the […] control.
(§1) Plasmids, tissue culture and transfections. HIV-1 clade B molecular clone NL4-3 and cade C clones K3016, ZM247 were obtained from Dr. Christina Ochsenbauer, University of Alabama, USA. Both K3016 and ZM247 were constructed using viral strains from South Africa. The HIV-1 clade C molecular clone pindieC1 was obtained from Dr. Uday Ranga, JNCASR, India. This clone was constructed using an HIV strain from India. HEK-293T and TZM-bl cells were propagated in Dulbecco's modified Eagle's medium (DM4EM) containing 10% fetal bovine serum (FBS). HUT-R5 cells were propagated in RPM 1640 medium supplemented with 10% FBS. For transfections, HEK-293T cells were grown in six well plates to about 80% confluency. Cells were transfected using Lipofectamine 2000 (invitrogen, USA) following manufacturer's recommendations. For viral replication assays, HUT-R5 T-cells were transfected using DEAE dextran as described in Waheed, A. A., Ono, A., and Freed, E. O.; Methods for the study of HIV-1 assembly; Methods Mol. Biol. Clifton N.J. 485, 163-184 (2009).
(§2) Preparation of viral stocks. Virus stocks were prepared by transfecting HEK-293T cells with HIV-1 DNAs (3 μg). 24 h post-transfection, the culture medium was replaced with fresh DMEM and incubated for another 2 h. Compounds tested were maintained in the culture throughout transfection. The culture supernatant was centrifuged at 845×g for 3 min to remove cellular debris. The clarified supernatants were filtered (pore size 0.45 µm filter disc) to remove residual cellular contaminants. For determination of viral infectivity, the un-concentrated virus was used to infect TZM-bl cells. For the CA-SP1 accumulation assay, the virus was pelleted by ultra-centrifugation at 210,100×g for 1 h at 4° C. using SW41Ti rotor (Beckman Coulter, USA).
CA-SP1 accumulation assay. To measure accumulation of CA-SP1, immunoblot analysis of virus-associated proteins was performed. The virus pellet was resuspended in radioimmunoprecipitation assay (RIPA) buffer (50 mM Tris-HCl pH 8.0, 150 mM sodium chloride, 1.0% NP-40, 0.5% sodium deoxycholate, 0.1% SDS) containing 1×protease inhibitor cocktail (Roche, Germany). The viral lysates were subjected to SDS-polyacrylamide gel electrophoresis (15% gel). Proteins were transferred to polyvinylidene difluoride membranes and reacted with HIV-IgG obtained from the NIH AIDS Reagent Program (catalog no. 3957) followed by incubation with HRP-conjugated anti-human secondary antibodies (GE Healthcare, UK). The proteins were visualized by enhanced chemiluminescence (Pierce, USA) and the bands were quantified using ImageJ software (http://imagej.nih.gov/ij/).
(A western blot detects proteins with antibodies after separation by electrophoresis.)

The next test has as its system HIV-1 clade B NL4-3. Nature of the test: Viral infectivity assay in TZM-bl cells (luciferase), NL4-3. Format: cell-based. The conditions noted are these: DMSO = 100.
Excerpt: as §1, §2
Viral infectivity assays. The virus stocks were normalized for p24 antigen using an HIV-1 p24 Antigen Capture kit (ABL, USA). Equal amounts of virus were used to infect TZM-bl cells (5×10^4/well) in the presence of 20 μg DEAE-dextran per mL in 24 well plate. Single-round infectivity assays were performed as previously described in Checkley, M. A. et al; Reevaluation of the Requirement for TIP47 in Human Immunodeficiency Virus Type 1 Envelope Glycoprotein Incorporation; J. Virol. 87, 3561-3570 (2013). The luciferase activity in the cell lysates was measured using the Steady-Glo luciferase assay kit (Promega, USA) following manufacturer's recommendations.

Structures can show the parent of a compound that is named as a salt.

Take `C=C(C)[C@@H]1CC[C@]2(CCNCCN3CCN(S(C)(=O)=O)CC3)CC[C@]3(C)[C@H](CC[C@@H]4[C@@]5(C)CC[C@H](OC(=O)CC(C)(C)C(=O)O)C(C)(C)[C@@H]5CC[C@]43C)[C@@H]12` [Compound 51ff, (3β)-17-[2-[[2-[4-(Methylsulfonyl)piperazin-1-yl]ethyl]amino]ethyl]-28-norlup-20(29)-en-3-ol, 3-(1-Hydrogen 2,2-Dimethylbutanedioate)]: the “% CA-SP1 Accumulation 10 nM NL4-3” value in the test on WT pNL4-3 is given as 72.7 (3) %. Besides, in the test on HIV-1 clade C ZM247, the “% CA-SP1 Accumulation K3016 10 nM” value is 12.8% and the “% CA-SP1 Accumulation K3016 100 nM” value was found to be 19.1%. Also, in the test with HIV-1 clade B NL4-3, the “% Relative Infectivity NL4-3 10 nM” value was 20.1% and the “% Relative Infectivity NL4-3 100 nM” value was 2.9%.

In the case of `C=C(C)[C@@H]1CC[C@]2(CCNC3CCN(CCO)CC3)CC[C@]3(C)[C@H](CC[C@@H]4[C@@]5(C)CC[C@H](OC(=O)CC(C)(C)CC(=O)O)C(C)(C)[C@@H]5CC[C@]43C)[C@@H]12` [Compound 51f, (3β)-17-[2-[[1-(2-Hydroxyethyl)piperidin-4-yl]amino]ethyl]-28-norlup-20(29)-en-3-ol, 3-(Hydrogen 3,3-Dimethylpentanedioate), Bis(trifluoroacetate) Salt], in the test on WT pNL4-3 (100 nM compound), the “% CA-SP1 Accumulation 100 nM NL4-3” value is reported as 79.7 (3) %.

On to `C=C(C)[C@@H]1CC[C@]2(CCNCCN3CCN(Cc4ccccc4)CC3)CC[C@]3(C)[C@H](CC[C@@H]4[C@@]5(C)CC[C@H](OC(=O)CC(C)(C)C(=O)O)C(C)(C)[C@@H]5CC[C@]43C)[C@@H]12` [Compound 51hh, (3β)-17-[2-[[2-[4-(Phenylmethyl)piperazin-1-yl]ethyl]amino]ethyl]-28-norlup-20(29)-en-3-ol, 3-(1-Hydrogen 2,2-Dimethylbutanedioate)], for which the “% CA-SP1 Accumulation 10 nM NL4-3” value with WT pNL4-3 was 66.4 (3) %. In addition, in the test with HIV-1 clade C ZM247, the “% CA-SP1 Accumulation K3016 10 nM” value is 7.0% and the “% CA-SP1 Accumulation K3016 100 nM” value turned out to be 27.2%. Also, in the test with HIV-1 clade B NL4-3, the “% Relative Infectivity NL4-3 10 nM” value was determined as 41.4% and the “% Relative Infectivity NL4-3 100 nM” value came to 3.3%.

With `C=C(C)[C@@H]1CC[C@]2(CCNCCN3CCS(=O)(=O)CC3)CC[C@]3(C)[C@H](CC[C@@H]4[C@@]5(C)CC[C@H](OC(=O)CC(C)(C)C(=O)O)C(C)(C)[C@@H]5CC[C@]43C)[C@@H]12` [Compound 51ee, (3β)-17-[[[2-[2-(1,1-Dioxothiomorpholin-4-yl)]Ethyl]Amino]Ethyl]-28-norlup-20(29)-en-3-ol, 3-(1-Hydrogen 2,2-Dimethylbutanedioate)], in the test with WT pNL4-3, the “% CA-SP1 Accumulation 10 nM NL4-3” value was 73.5%. Moreover, in the test with HIV-1 clade C ZM247, the “% CA-SP1 Accumulation K3016 10 nM” value stood at 14.2% and the “% CA-SP1 Accumulation K3016 100 nM” value came to 32.6%. Moreover, in the test on HIV-1 clade B NL4-3, the “% Relative Infectivity NL4-3 10 nM” value stood at 15.4% and the “% Relative Infectivity NL4-3 100 nM” value came out at 4.4%.

These data come from patent US11236122B2, “Triterpene amine derivatives” (DFH THERAPEUTICS, priority 2018, dated 2022).
